Results taken from PubChem BioAssay AID624473 (Sanford-Burnham Center for Chemical Genomics, 2012).
Several values for one entry are separate records, joined by “and”; a condition that tells them apart may be missing. Equal values may be shown once. Activity calls are given as the source filed them.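 The calls were made as follows: active = IC50 at or below 20 µM in the dose response; inactive = the rest.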

Test system: HL-1 cardiomyocytes, 2-deoxyglucose injury, ATPlite viability, 2 h
Assay: cardiomyocyte ATP preservation under glycolysis block – HL-1 cells, 2-deoxyglucose, set 2, SAR follow-up (AID 624473)

Row | Structure (SMILES) | IC50
1 | COc1ccc(-c2cc(C(=O)Nc3cccc(C(C)=O)c3)c3ccccc3n2)cc1OC | 19.8 µM (inactive)
2 | COc1cc(-c2cc(C(=O)Nc3cccc(Cl)c3)c3ccccc3n2)cc(OC)c1OC | > 79 µM (inactive)
3 | O=C1c2ccccc2N2C(=O)c3ccccc3C2N1c1cccc(Br)c1 (stereo not given) | > 79 µM (inactive)
4 | CCOC(=O)c1cccc(NC(=O)c2cc(-c3cc(OC)c(OC)c(OC)c3)nc3ccccc23)c1 | 4.29 µM
5 | CC(=O)c1cccc(NC(=O)c2cc(-c3ccccc3)nc3ccccc23)c1 | 14 µM
6 | O=C1c2ccccc2N2C(=O)c3ccccc3C2N1c1ccccc1 (stereo not given) | > 79 µM (inactive)
7 | COc1ccc2c(c1OC)C(=O)N1c3ccccc3C(=O)N(Cc3ccccc3Cl)C21 (stereo not given) | 4 µM
8 | COc1ccc(NC(=O)c2cc(-c3cc(OC)c(OC)c(OC)c3)nc3ccccc23)cc1 | > 79 µM (inactive)
9 | COc1cc(-c2cc(C(=O)Nc3ccc(C(C)=O)cc3)c3ccccc3n2)cc(OC)c1OC | 6.65 µM
10 | COc1ccc2c(c1OC)C(=O)N1c3ccccc3C(=O)N(c3cccc(C)c3)C21 (stereo not given) | 16.5 µM
11 | COc1ccc2c(c1OC)C(=O)N1c3ccccc3C(=O)N(Cc3cccc(Cl)c3)C21 (stereo not given) | 8.52 µM
12 | COc1ccc2c(c1OC)C(=O)N1c3ccccc3C(=O)N(c3cccc(F)c3)C21 (stereo not given) | 13.9 µM
13 | COc1ccc2c(c1OC)C(=O)N1c3ccccc3C(=O)N(c3cccc(C(F)(F)F)c3)C21 (stereo not given) | 19.8 µM
14 | COc1cccc(N2C(=O)c3ccccc3N3C(=O)c4c(ccc(OC)c4OC)C23)c1 (stereo not given) | 15.6 µM
15 | COc1ccc2c(c1OC)C(=O)N1c3ccccc3C(=O)N(c3ccc(C)cc3)C21 (stereo not given) | 3.03 µM
16 | COc1cccc(CNC(=O)c2cc(-c3ccc(OC)c(OC)c3)nc3ccccc23)c1 | 9.42 µM
17 | COc1cc(-c2cc(C(=O)Nc3cccc(C(F)(F)F)c3)c3ccccc3n2)cc(OC)c1OC | > 79 µM (inactive)
18 | COc1ccc(N2C(=O)c3ccccc3N3C(=O)c4c(ccc(OC)c4OC)C23)cc1 (stereo not given) | 18.2 µM

Row | Structure (SMILES) | IC50
19 | CCN(CC(=O)Nc1ccc(OC)cc1)C(=O)c1cc(-c2cccs2)nn1-c1ccccc1 | 8.33 µM and 9.6 µM
20 | COc1cc(-c2cc(C(=O)Nc3cccc(C)c3)c3ccccc3n2)cc(OC)c1OC | > 79 µM (inactive)
21 | COc1cccc(-c2cc(C(=O)Nc3cccc(C(C)=O)c3)c3ccccc3n2)c1 | 9.47 µM
22 | CCN(CC(=O)Nc1ccc(OC)cc1)C(=O)c1cc(-c2cc(OC)c(OC)c(OC)c2)nc2ccccc12 | 22.6 µM (inactive)
23 | COc1cc(-c2cc(C(=O)Nc3ccccc3)c3ccccc3n2)cc(OC)c1OC | 8.04 µM
24 | COc1cccc(NC(=O)c2cc(-c3cc(OC)c(OC)c(OC)c3)nc3ccccc23)c1 | > 79 µM (inactive)
25 | COc1cc(-c2cc(C(=O)Nc3cccc(F)c3)c3ccccc3n2)cc(OC)c1OC | > 79 µM (inactive)
26 | COc1cc(-c2cc(C(=O)Nc3cccc(C(C)=O)c3)c3ccccc3n2)cc(OC)c1OC | 7.15 µM and 10.3 µM
27 | COc1ccc2c(c1OC)C(=O)N1c3ccccc3C(=O)N(c3ccc(Br)cc3)C21 (stereo not given) | 1.95 µM
28 | COc1ccc(-c2cc(C(=O)Nc3cccc(C(C)=O)c3)c3ccccc3n2)cc1 | > 79 µM (inactive)
29 | COc1cc(-c2cc(C(=O)Nc3cccc(C(C)=O)c3)c3cc(Cl)ccc3n2)cc(OC)c1OC | > 79 µM (inactive)
30 | COc1cccc(CNC(=O)c2cc(-c3cc(OC)c(OC)c(OC)c3)nc3ccccc23)c1 | 12.2 µM
31 | COc1ccc2c(c1OC)C(=O)N1c3ccccc3C(=O)N(c3ccc(C(C)(C)C)cc3)C21 (stereo not given) | > 79 µM (inactive)
32 | COc1ccc2c(c1OC)C(=O)N1c3ccccc3C(=O)N(c3cccc(Br)c3)C21 (stereo not given) | 3.64 µM and 34.8 µM (inactive)
33 | COc1ccc2c(c1OC)C(=O)N1c3ccccc3C(=O)N(c3ccccc3)C21 (stereo not given) | 5.09 µM
34 | COc1cccc(N2C(=O)c3ccccc3N3C(=O)c4ccccc4C23)c1 (stereo not given) | > 79 µM (inactive)
35 | COc1ccc2c(c1OC)C(=O)N1c3ccccc3C(=O)N(c3cccc(Cl)c3)C21 (stereo not given) | 7.57 µM
